The assay addresses T1, B19V (native virus capsid) (Human parvovirus B19 strain HV, UniProt Q9PZT0).
T1 construct: gene vp; icosahedral capsid of 60 VP1 and VP2 proteins; with Minor capsid protein VP1
In words: hemagglutination inhibition of human red blood cells by soluble Gb4; binding to cells also by qPCR. In kind it is cell-based. Particulars: pH 6.3, PiBS, room temperature; ceramide of natural source (Matreya), in DMSO; Gb3 as control lipid. (In general: Real-time PCR tracks product formation cycle by cycle.)

In the case of globoside [Gb4], the “hemagglutination inhibition, effective concentration” value lay within 0.2 to 0.4 µM.

The values above are taken from publication PMC8087101, “Human parvovirus B19 interacts with globoside under acidic conditions as an essential step in endocytic trafficking” (PLoS Pathogens, 2021).
